From ChEMBL document CHEMBL5209584, “Membrane potential based assay for SLC15A2 using HEK-293 SLC15A2 OE cells” (2022)
Values joined by “and” are separate entries in the source; they are usually repeats but may differ in a detail not shown here. Equal entries are not always repeated. Square brackets hold non-standard residues; d marks the D form. Peptide text beside a SMILES is read from it. Sar = CNCC(=O)O

Biological target: T1, Solute carrier family 15 member 2 (Homo sapiens, UniProt Q16348)
T1 sequence (Q16348 whole entry): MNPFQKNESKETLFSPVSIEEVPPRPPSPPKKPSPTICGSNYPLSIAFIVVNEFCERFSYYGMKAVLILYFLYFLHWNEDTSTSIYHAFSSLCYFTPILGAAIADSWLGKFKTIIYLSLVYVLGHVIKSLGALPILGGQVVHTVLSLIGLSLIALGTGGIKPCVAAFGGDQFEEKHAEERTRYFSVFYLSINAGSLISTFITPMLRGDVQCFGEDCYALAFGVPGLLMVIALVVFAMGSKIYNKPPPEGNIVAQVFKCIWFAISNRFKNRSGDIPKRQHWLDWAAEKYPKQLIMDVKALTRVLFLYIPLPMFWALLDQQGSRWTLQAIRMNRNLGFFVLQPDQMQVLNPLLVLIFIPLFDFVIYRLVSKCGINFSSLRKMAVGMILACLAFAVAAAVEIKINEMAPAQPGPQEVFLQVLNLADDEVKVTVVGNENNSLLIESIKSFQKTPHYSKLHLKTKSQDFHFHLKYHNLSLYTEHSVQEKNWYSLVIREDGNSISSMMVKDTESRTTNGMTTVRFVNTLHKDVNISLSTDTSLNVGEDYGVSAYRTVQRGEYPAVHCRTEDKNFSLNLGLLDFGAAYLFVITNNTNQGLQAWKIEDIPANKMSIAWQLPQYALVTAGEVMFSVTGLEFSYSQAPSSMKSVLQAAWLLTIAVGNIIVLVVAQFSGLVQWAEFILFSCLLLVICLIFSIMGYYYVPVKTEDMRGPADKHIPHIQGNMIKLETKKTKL
Experiment: Substrate uptake by the Peptide Transporter 2 (PEPT2, SLC15A2) as assessed by the fluorescent FLIPR membrane potential dye in HEK-293 JumpIN-SLC15A2 cells (PubChem AID: 1794819)
Format: functional, cell-based, HEK293

SMILES	EC50
NCCC(=O)N[C@@H](Cc1cnc[nH]1)C(=O)O [CARNOSINE]	28 µM
CN(CC(=O)O)C(=O)CN [GLYCYLSARCOSINE] (H-Gly-[Sar]-OH)	123 µM and 39 µM
